{"source": "patent US6271239A", "about": "“Delta opioid receptor-selective benzylidene-substituted morphinans” (Regents of the University of Minnesota, priority 1995, dated 2001)", "key": {"δ1 receptors": {"test_system": "δ1 receptors", "assay_type": "binding", "conditions": "guinea pig brain membranes", "procedure": "Therefore, a better assessment of the δ subtype selectivity can be obtained from binding of brain membranes and from antagonism studies in mice. The binding of BNTX to guinea pig brain membranes was determined using the general method of L. L. Werling et al., J. Pharmacol. Exp. Ther., 233, 722 (1985), as modified by A. E. Takemori et al., J. Pharmacol. Exp. Ther., 246, 255 (1988). The radio-ligands employed were [^3 H]DPDPE ([D-Pen ^2, D-Pen^5 ] enkephalin) for δ1 receptors, [^3 H]DSLET([D-Ser^2 -Leu^5 ]enkephalin-Thr^6) for δ^2 receptors, [3H]DAMGO for μ receptors and U69593(trans-(+)-3,4-dichloro-N-methyl-N-[2-(1-pyrididinyl)cyclohexyl]benzeneacetamide) for κ receptors."}, "κ opioid receptor": {"target": "T1, κ opioid receptor (Mus musculus, UniProt P33534)", "T1 construct": "from tissue; host or cells: live mouse (BNTX i.c.v.)", "T1 sequence (P33534 whole entry)": "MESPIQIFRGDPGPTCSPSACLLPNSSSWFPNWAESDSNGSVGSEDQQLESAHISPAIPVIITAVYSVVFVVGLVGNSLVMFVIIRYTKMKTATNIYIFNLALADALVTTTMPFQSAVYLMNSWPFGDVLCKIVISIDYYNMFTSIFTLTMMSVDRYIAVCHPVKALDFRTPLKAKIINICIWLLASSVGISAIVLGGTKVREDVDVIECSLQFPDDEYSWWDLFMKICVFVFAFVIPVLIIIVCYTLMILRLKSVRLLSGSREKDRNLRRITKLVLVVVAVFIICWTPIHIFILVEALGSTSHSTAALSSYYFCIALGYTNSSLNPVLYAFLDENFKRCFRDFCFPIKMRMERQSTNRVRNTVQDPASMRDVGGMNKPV", "experiment": "Mouse tail flick antinociception, antagonism of U50488H (κ agonist)", "assay_type": "in vivo", "conditions": "BNTX 6.25 pmol/i.c.v./mouse", "procedure": "(§1) The antagonist effect of BNTX on antinociception was evaluated in mice using the tail flick assay, in accord with the procedure of A. E. Takemor, et al., J. Pharmacol. Exp. Ther., 243, 91 (1987). At least three groups of ten mice were used to generate dose-response curves. A mouse was regarded as positive for antinociception if the latency to flick its tail was more than the control latency plus 3 S.D. of the mean reaction time of the group. The reaction times were determined at the peak time for antinociception after administration of various agonists. Intra-cerebroventricular (i.c.v.) injections were made in a volume of 5 μl by the method of T. J. Haley et al., Br. J. Pharmacol., 12, 12 (1957).\n(§2) On Table III, the potencies are expressed as ED50 ratios, which represent the ED50 of the standard agonist administered subcutaneously in the presence of BNTX (6.25 pmoL/i.c.v./mouse), divided by the ED50 of the standard agonist."}, "δ2 opioid receptor": {"target": "T2, δ2 opioid receptor (Mus musculus, UniProt P32300)", "T2 construct": "from tissue; host or cells: live mouse (BNTX i.c.v.)", "T2 sequence (P32300 whole entry)": "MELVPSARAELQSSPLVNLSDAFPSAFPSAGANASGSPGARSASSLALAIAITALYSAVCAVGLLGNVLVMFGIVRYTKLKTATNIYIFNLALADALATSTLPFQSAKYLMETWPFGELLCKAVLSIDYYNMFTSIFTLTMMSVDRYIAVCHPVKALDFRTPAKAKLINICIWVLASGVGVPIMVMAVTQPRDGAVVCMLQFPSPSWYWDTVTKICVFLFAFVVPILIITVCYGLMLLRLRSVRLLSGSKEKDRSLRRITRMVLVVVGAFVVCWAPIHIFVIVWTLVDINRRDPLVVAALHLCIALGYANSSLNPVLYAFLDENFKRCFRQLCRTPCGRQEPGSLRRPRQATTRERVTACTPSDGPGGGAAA", "experiment": "Mouse tail flick antinociception, antagonism of DSLET", "assay_type": "in vivo", "conditions": "BNTX 6.25 pmol/i.c.v./mouse", "procedure": "as §1, §2"}, "[1]": {"target": "T3, delta opioid receptor (δ; printed δ1 for DADLE in Table III) (Mus musculus, UniProt P32300)", "T3 construct": "Both vasa deferentia were dissected out of mice; from tissue; host or cells: mouse vas deferens", "T3 sequence (P32300 whole entry)": "as above", "experiment": "Mouse vas deferens (MVD) smooth muscle, antagonism of DADLE", "assay_type": "cell-based", "conditions": "data of Table II, MVD/GPI", "procedure": "This assay was performed according to the description by G. Henderson et al., Brit. J. Pharmacol., 46, 764 (1972). […] The organ bath was maintained at 37° C.\nConcentration-response curves were obtained in the absence (control) and the presence of the antagonist are expressed as IC50 values. […] Therefore, a high IC50 ratio represents a correspondingly high degree of antagonism at a particular receptor. […] Therefore, a low Ke represents a correspondingly high degree of binding at a particular receptor."}, "μ opioid receptor": {"target": "T4, μ opioid receptor (Mus musculus, UniProt P42866)", "T4 construct": "from tissue; host or cells: live mouse (BNTX i.c.v.)", "T4 sequence (P42866 whole entry)": "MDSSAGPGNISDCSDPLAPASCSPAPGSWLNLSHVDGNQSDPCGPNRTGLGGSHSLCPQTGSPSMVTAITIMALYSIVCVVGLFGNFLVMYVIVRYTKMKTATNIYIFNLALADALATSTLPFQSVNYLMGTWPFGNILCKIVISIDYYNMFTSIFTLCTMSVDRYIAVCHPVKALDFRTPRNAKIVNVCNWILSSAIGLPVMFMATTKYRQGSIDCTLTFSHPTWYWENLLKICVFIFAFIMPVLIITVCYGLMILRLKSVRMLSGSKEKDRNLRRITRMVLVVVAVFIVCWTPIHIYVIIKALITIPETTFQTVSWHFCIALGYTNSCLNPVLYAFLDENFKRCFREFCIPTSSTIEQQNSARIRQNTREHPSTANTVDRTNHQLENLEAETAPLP", "experiment": "Mouse tail flick antinociception, antagonism of mu agonist", "assay_type": "in vivo", "conditions": "BNTX 6.25 pmol/i.c.v./mouse", "procedure": "as §1, §2"}, "ethanol drinking [2]": {"test_system": "ethanol drinking", "conditions": "in vivo; cited from earlier work"}, "ethanol drinking [3]": {"test_system": "ethanol drinking", "conditions": "rats bred for high voluntary ethanol drinking; application Ser. No. 07/750,109; cited from earlier work"}, "ethanol intake": {"test_system": "ethanol intake", "conditions": "rat model of alcoholism; cited from earlier work"}, "[4]": {"test_system": "alcohol relapse in recovering alcoholics", "conditions": "cited from earlier work"}}, "note": "Square brackets hold non-standard residues; d marks the D form. Peptide text beside a SMILES is read from it. * marks the point of attachment. Tyr(Nα,Nα-allyl2) = C=CCN(CC=C)[C@@H](Cc1ccc(O)cc1)C(=O)*; Aib = CC(C)(N)C(=O)O"}
{"smiles": "O=C1C(=Cc2ccccc2)C[C@@]2(O)[C@H]3Cc4ccc(O)c5c4[C@@]2(CCN3CC2CC2)[C@H]1O5", "note": "[BNTX, 7-Benzylidene-7-dehydronaltrexone]", "values": [{"measurement": "selectivity (binding, words)", "setting": "δ1 receptors", "value": "highly selective for δ1 receptor sites"}, {"measurement": "shift of dose-response curve, U50488H", "setting": "κ opioid receptor; words", "value": "not shifted significantly"}, {"measurement": "ED50 Ratio (\"Potency Ratio\"), U50488H (κ)", "setting": "κ opioid receptor; ED50 of U50488H in presence of BNTX / ED50 of agonist", "value": 1.2}, {"measurement": "shift of dose-response curve, DSLET", "setting": "δ2 opioid receptor; words", "value": "not shifted significantly"}, {"measurement": "ED50 Ratio (\"Potency Ratio\"), DSLET (δ2)", "setting": "δ2 opioid receptor; ED50 of DSLET in presence of BNTX / ED50 of agonist", "value": 0.91}, {"measurement": "selectivity (smooth muscle, words)", "setting": "[1]", "value": "δ-selective antagonist"}, {"measurement": "shift of dose-response curve, morphine", "setting": "μ opioid receptor; words", "value": "not shifted significantly"}, {"measurement": "ED50 Ratio (\"Potency Ratio\"), DAMGO (μ)", "setting": "μ opioid receptor; ED50 of DAMGO (so in the source) in presence of BNTX / ED50 of agonist", "value": 0.88}]}
{"smiles": "C=CCN(CC=C)[C@@H](Cc1ccc(O)cc1)C(=O)NC(C)(C)C(=O)NC(C)(C)C(=O)N[C@@H](Cc1ccccc1)C(=O)N[C@@H](CC(C)C)C(=O)O", "note": "[ICI 174864, N,N-diallyl-Tyr-Aib-Aib-Phe-Leu-OH] ({Tyr(Nα,Nα-allyl2)}-[Aib][Aib]FL-OH)", "values": [{"measurement": "duration of action", "setting": "ethanol drinking [2]", "value": "very short duration of action"}, {"measurement": "ethanol drinking", "setting": "ethanol drinking [2]", "value": "strongly inhibits ethanol drinking"}]}
{"smiles": "Oc1ccc2c3c1O[C@H]1c4oc5ccccc5c4C[C@@]4(O)[C@@H](C2)N(CC2CC2)CC[C@]314", "note": "[NTB]", "values": [{"measurement": "suppression of ethanol drinking / water intake", "setting": "ethanol drinking [3]", "value": "unexpectedly prolonged suppression of ethanol drinking without altering water intake"}]}
{"smiles": "Oc1ccc2c3c1O[C@H]1c4[nH]c5ccccc5c4C[C@@]4(O)[C@@H](C2)N(CC2CC2)CC[C@]314", "note": "[NTI]", "values": [{"measurement": "suppression of ethanol drinking / water intake", "setting": "ethanol drinking [3]", "value": "unexpectedly prolonged suppression of ethanol drinking without altering water intake"}]}
{"smiles": "C=CCN1CC[C@]23c4c5ccc(O)c4O[C@H]2C(=O)CC[C@@]3(O)[C@H]1C5", "note": "[Naloxone, naloxone]", "values": [{"measurement": "ethanol and water intake", "setting": "ethanol intake", "value": "suppress ethanol but not water intake"}]}
{"smiles": "O=C1CC[C@@]2(O)[C@H]3Cc4ccc(O)c5c4[C@@]2(CCN3CC2CC2)[C@H]1O5", "note": "[Naltrexone, naltrexone]", "values": [{"measurement": "incidence of relapse in recovering alcoholics", "setting": "[4]", "value": "reduce the incidence of relapse in recovering alcoholics"}]}
